This note sets out measurements from US20070197556A1, “Fungicidal Mixtures” (priority 2004, published 2007).

For the experiment, the system named is Pyrenophora teres. Description: activity against net blotch of barley caused by Pyrenophora teres, 1 day protective application. The conditions noted are these: individual active compound, 5 ppm in the spray liquor, barley seedlings cultivar Hanna, assessed after 6 days. The experiment is classed as in vivo. The protocol:
The active compounds were prepared separately as a stock solution comprising 25 mg of active compound which was made up to 10 ml using a mixture of acetone and/or DMSO and the emulsifier Uniperol® EL (wetting agent having emulsifying and dispersing action based on ethoxylated alkylphenols) in a volume ratio solvent:emulsifier of 99:1. The mixture was then made up with water to 100 ml. The active compounds or mixtures were mixed or diluted with water to the desired concentration.
Use example—activity against net blotch of barley caused by Pyrenophora teres, 1 day protective application
Leaves of potted barley seedlings of the cultivar “Hanna” were sprayed to runoff point with an aqueous suspension having the concentration of active compound stated below. 24 hours after the spray coating had dried on, the test plants were inoculated blotch pathogen. […] After 6 days, the extent of the development of the disease was determined visually in % infection of the entire leaf area.
The visually determined values for the percentages of infected leaf areas were converted into efficacies in % of the untreated control:
The efficacy (E) is calculated as follows using Abbot's formula: E=(1−α/β)·100 • α corresponds to the fungal infection of the treated plants in % and • β corresponds to the fungal infection of the untreated (control) plants in % […]

As for `CC1CCN(c2c(-c3c(F)cc(F)cc3F)c(Cl)nc3ncnn23)CC1` [I, 5-chloro-7-(4-methylpiperidin-1-yl)-6-(2,4,6-trifluorophenyl)[1,2,4]tri-azolo[1,5-a]pyrimidine], the “Efficacy in % of the untreated control” value is 72%.
